# Data from patent publication US7223856B2, “Antisense compounds which prevent cell death and uses thereof” (The Trustees of Columbia University in the City of New York, priority 1997, dated 2007).
# Tests used:
# Jurkat cells = experiment: Anti-Fas mediated death of Jurkat cells; format: cell-based, human; settings: dose-dependent, FIG. 8
# Excerpt: FIG. 8. […] V-ICH is an antisense oligonucleotide having an antisense sequence of human Ich, specifically V-AICH has the sequence of Seq ID No. 2.
# • 1. […] Beta-amyloid peptide mediates apoptosis in PC12 cells. This apoptosis can be abrogated by down-regulation of Nedd2. Clinical Relevance of Antisense Oligonucleotides.
# naive PC12 cells [1] = experiment: Survival of naive PC12 cells after serum deprivation (intact nuclei count); format: cell-based, rat; settings: for protection from death caused by serum deprivation: additive at time of plating in serum-free medium, 24 hours
# Method: (FIG. 4B) Dose-response curve for protection from serum deprivation by V-ANedd. PC12 cells were washed for trophic factor deprivation and plated in serum-free medium with the indicated concentrations of V-ANedd. Cell survival relative to the number present with the addition of NGF was measured at one day.
# PC12 cells were grown as previously described (Greene and Tischler, 1976) on rat-tail collagen-coated dishes in RPMI 1640 medium containing 5% fetal calf serum and 10% heat-inactivated horse serum (complete medium). […] For cell survival assays involving trophic factor deprivation, cells (either naive or NGF-pretreated) were extensively washed in serum-free RPMI 1640 medium and re-plated on fresh collagen-coated 24-well dishes as previously described (Rukenstein et al., 1991) in RPMI 1640 medium lacking serum or NGF. […] Various concentrations of V-ANedd (vector linked antisense oligonucleotide to Nedd2) were included in the medium as indicated. Numbers of viable cells per culture were determined by quantifying intact nuclei as previously described (Rukenstein et al., 1991). Counts were performed in triplicate and reported as means ±SEM.
# Nedd2 [2] = experiment: Western blot of Nedd2 in PC12 cell lysates; format: cell-based, rat
# Excerpt: The cells were extracted in sample buffer, the extracts boiled and equal amounts of protein resolved by 10% SDS-PAGE and transferred to nitrocellulose. Blots were probed with (FIG. 3A) anti-N-Nedd at 1:500 or (FIG. 3B) anti-C-Nedd at […] and staining visualized with ECL. Bands were quantified using Scion Image® software and normalized against peripherin levels. The level of down-regulation is representative of that obtained in 5 independent experiments.
# PC12 cells grown with or without V-ANedd or V-SNedd were harvested in SDS-containing sample buffer and immediately boiled. Equal amounts of protein were separated by 10% PAGE, transferred to nitrocellulose and immunostained as described (Troy et al., 1992). The affinity purified anti-N-Nedd2 was used at a dilution of 1:500. The commercial antiserum, Nedd2 p12 C20 (Santa Cruz Biotechnology), was used at a dilution of 1:350. Visualization was with ECL using goat-anti-rabbit peroxidase at 1:1000. The relative intensity of the protein bands were quantified using Scion Image 1.55® software and samples were normalized by stripping and reprobing the blots with anti-peripherin antibody.
# Nedd2 [3] = experiment: Nedd2 immunofluorescence staining of PC12 cells with anti-N-Nedd2; format: cell-based, rat; settings: 400 nM, 24 hours, naive and neuronal PC12 cells
# Method: Naive and neuronally differentiated PC12 cells (pretreated for at least 7 days with NGF, nerve growth factor) were plated on Matrigel coated multichamber slides. V-ANedd (400 nM) was added to the indicated cultures after plating. Naive cultures were grown in RPMI 1640 medium with 5% FCS and 10% horse serum; neuronal cultures were grown in RPMI 1640 medium with 1% horse serum and NGF (100 ng/ml). After overnight maintenance, cells were fixed in ice cold methanol and then immunostained with anti-N-Nedd.
# PC12 cells were plated on coverslips or on 8 well multichamber slides (LabTek, VWR), coated with Matrigel®. After growth overnight, cells were fixed in ice cold methanol and then immunostained as described (Troy et al., 1990). The primary antibody was either affinity purified antibody Anti-N-Nedd2 or Nedd2 p12 C20 (Santa Cruz Biotechnology) at a dilution of 1:200. The secondary antibody was fluoroscein isothiocyanate-conjugated goat anti-rabbit (Cappel, Durham, N.C.) at 1:100. For visualization with a Nikon® fluorescence microscope slides were coverslipped with Aqua-mount®. Confocal microscopy was done on a BioRad® 600 confocal microscope.
# naive PC12 cells [4] = settings: PC12 cells and sympathetic neurons, Troy et al., 1996b; cited from earlier work
# PC12 cells [5] = settings: PC12 cells and sympathetic neurons, Troy et al., 1996b; cited from earlier work
# sympathetic neurons [6] = experiment: Sympathetic neuron death by SOD1 down-regulation and nitric oxide generation (V-ASOD1 + SNAP); format: cell-based, rat; settings: V-ASOD1 50 nM, SNAP 100 μM, with NGF
# Method: Sympathetic neurons, after 6 days in culture, were maintained with NGF (100 ng/ml) and mixtures of the following additives as indicated: V-ASOD1 (50 nM), SNAP (100 μM) and V-ANedd (400 nM). Numbers of surviving neurons were determined at the indicated times as above.
# (§1) Sympathetic neuron cultures were prepared from 2 day old rat pups, as previously described (Ferrari et al., 1995). Cultures were grown in 24-well collagen coated dishes in RPMI 1640 medium plus 10% horse serum with mouse NGF (100 ng/ml). One day following plating, uridine and 5-fluorodeoxyuridine (10 μM each) were added to the cultures and left for three days to eliminate non-neuronal cells. On the sixth day following plating NGF was removed by washing the cultures three times with RPMI 1640 medium plus 10% horse serum, followed by the addition of medium containing anti-mouse NGF (1:200, Sigma, St. Louis, Mo.) with or without V-ANedd. Each culture was scored, as previously described (Rydel and Greene, 1988), as numbers of living, phase-bright neurons at various times. Three replicate cultures were assessed for each condition and data are normalized to numbers of neurons present in each culture at the time of NGF withdrawal and reported as mean ±SEM.
# IL-1β = IL-1β release from PC12 cells by ELISA; format: cell-based, rat; settings: 50 nM V-ASOD1, 800 nM V-ANedd, 20 hours
# Method: PC12 cells were plated with the indicated additives (50 nM V-ASOD1, 25 nM V-ICEinh, 800 nM V-ANedd). Controls contained complete medium. After 20 hours, media were removed and IL-1β was measured by ELISA using the Intertest-1βX® kit. Data are expressed as means ±SEM (n=3).
# IL-1β was quantified by ELISA using the Intertest-1βX® kit (Genzyme, Cambridge, Mass.) as previously described (Troy et al., 1996b). PC12 cells were grown as described above, on 24-well plates, in 500 μl of medium. After one day incubation, medium was removed and IL-1β measured following the manufacturer's instructions, and number of viable cells in each well quantified.
# CPP-32 = experiment: Western blot of the same samples probed with anti-CPP32; format: cell-based, rat; settings: blots of the same samples probed with anti-CPP32
# [7] = tested on: neuronally differentiated PC12 cells; experiment: Survival of neuronally differentiated PC12 cells after NGF withdrawal; format: cell-based, rat
# Method: (§2) (FIG. 5A) V-ANedd differentially protects neuronally differentiated PC12 cells from apoptosis caused by NGF withdrawal. PC12 cells were neuronally differentiated by exposure to NGF (100 ng/ml) for at least 7 days in RPMI 1640 medium plus 1% horse serum. Cells were deprived of serum and NGF and re-plated as described in FIGS. 4A–C. Additives present at the time of plating included 400 nM V-ANedd, 400 nM V-ICEinh or 100 ng/ml NGF (4 left-hand bars). For SOD1 down-regulation (4 right-hand bars) neuronally differentiated PC12 cells were plated in RPMI 1640 medium plus 1% horse serum, with 100 ng/ml NGF. At the time of plating, cultures were incubated, as indicated, with 50 nM V-ASOD1 and with the indicated additives (800 nM V-ANedd, 50 nM V-ICEinh). Cell survival was determined after one day and expressed as in FIGS. 4A–C.
# (FIG. 5B) Dose-response curve for protection from NGF deprivation by V-ANedd. Neuronally differentiated PC12 cells were washed as above for NGF deprivation and plated in serum-free medium with the indicated concentrations of V-ANedd. Cell survival relative to the number present with the addition of NGF was quantified at one day.
# (FIG. 5C) V-ANedd provides long term protection against NGF deprivation. Neuronally differentiated PC12 cells were deprived of NGF and serum and plated as described in FIG. 5A. V-ANedd (400 nM) was included at the time of NGF deprivation and replenished 1 day later. Cell survival was determined at the indicated times as in FIGS. 4A–C.
# (§3) PC12 cells were grown as previously described (Greene and Tischler, 1976) on rat-tail collagen-coated dishes in RPMI 1640 medium containing 5% fetal calf serum and 10% heat-inactivated horse serum (complete medium). NGF primed (neuronally differentiated) PC12 cells were grown for at least 7 days in RPMI 1640 medium plus 1% horse serum and NGF (100 ng/ml). […] Numbers of viable cells per culture were determined by quantifying intact nuclei as previously described (Rukenstein et al., 1991). […]
# PC12 cells [8] = experiment: Survival of PC12 cells after SOD1 down-regulation by V-ASOD1; format: cell-based, rat
# Method: (FIG. 4A) V-ANedd differentially protects PC12 cells from serum deprivation. For serum deprivation (4 left-hand bars) cells were extensively washed as described in Experimental Procedures hereinbelow and the indicated additives (100 ng/ml NGF, 400 nM V-ANedd, or 200 nM V-ICEinh were added at the time of plating in serum-free RPMI1640 medium. For SOD1 down-regulation (4 right-hand bars), PC12 cells were re-plated on fresh collagen-coated 24-well dishes in complete medium (RPMI 1640 medium with 10% horse serum, 5% fetal bovine serum) with 50 nM V-ASOD1 (vector linked antisense oligonucleotide to SOD1). Additives (800 nM V-ANedd, 25 nM V-ICEinh) were included as indicated. Control cells were in complete medium. Cultures were incubated for 24 hours, lysed and number of intact nuclei counted. The numbers of surviving cells are expressed relative to the number in the control cultures (designated as 100). […] Experiments were performed in triplicate wells and data are expressed as means ±SEM.
# as §3, with “medium).” for “medium). NGF primed (neuronally differentiated) PC12 cells were grown for at least 7 days in RPMI 1640 medium plus 1% horse serum and NGF (100 ng/ml).”
# sympathetic neurons [9] = experiment: Survival of sympathetic neurons after NGF deprivation; format: cell-based, rat; settings: for survival: single addition at time of NGF withdrawal
# Method: (FIG. 6A) V-ANedd protects sympathetic neurons from NGF-withdrawal. At the time of NGF deprivation, V-ANedd (400 nM) was added to the cultures as indicated. Numbers of surviving neurons were determined at the indicated times as described in Experimental Procedures hereinbelow and are reported as relative to the number present in each culture at the time of NGF withdrawal.
# as §1
# [10] = tested on: neuronally differentiated PC12 cells; experiment: Survival of neuronally differentiated PC12 cells after SOD1 down-regulation; format: cell-based, rat; settings: 50 nM V-ASOD1
# Method: as §2, §3
substance,measurement,setting,value
"V-AICH: antisense oligonucleotide having an antisense sequence of human Ich, Seq ID No. 2 (GTCAGCGGCCATCAGCTT) (linked to vector peptide (Penetratin1), oligo chemistry not given here)",protection from anti-Fas mediated death,Jurkat cells,protect from anti-Fas mediated death in a dose-dependent manner
"V-SNedd: control scrambled oligonucleotide CCGTAGCGTAGCTCCGCCTGC (SEQ ID NO:5) linked to vector peptide Penetratin 1 (linked to vector peptide Penetratin 1, further chemistry not given here) [reference compound]",protection from death caused by serum deprivation,naive PC12 cells [1],no effect on survival or death
same,down-regulation of Nedd2 bands (in words),"Nedd2 [2]; control oligonucleotide, Western blot",did not down-regulate any of the bands
same,anti-N-Nedd2 staining (immunohistochemistry),Nedd2 [3],no change in staining
IL-1Ra: IL-1 receptor antagonist,death caused by trophic factor/NGF withdrawal (literature),naive PC12 cells [4],little or no effect
same,apoptosis following SOD1 down-regulation (literature),PC12 cells [5],suppressed
NGF: nerve growth factor,protection from death caused by serum deprivation,naive PC12 cells [1],promotes survival of all cells initially plated
"V-ANedd: Penetratin1-linked antisense oligonucleotide to Nedd2, GCTCGGCGCCGCCATTTCCAG (SEQ ID NO:1) (Penetratin1 peptide conjugated, oligonucleotide chemistry not given here)",concentration of maximal protection,naive PC12 cells [1]; added at the same time as serum withdrawal,400 nM
same,protection from death caused by serum deprivation,naive PC12 cells [1],protects naive PC12 cells from death caused by serum deprivation
same,concentration of maximal survival after pretreatment,naive PC12 cells [1]; pretreatment for 4 hours with 50 nM V-ANedd,100 nM
same,effect on sympathetic neuron death evoked by V-ASOD1+SNAP,sympathetic neurons [6],without effect
same,IL-1β release after exposure to ASOD1,IL-1β,did not affect IL-1β release
same,down-regulation of major band and minor Nedd2 bands,"Nedd2 [2]; 18–22 hours treatment, n=4",60–70%
same,down-regulation of Nedd2 in the presence of V-ASOD1,Nedd2 [2]; in the presence of V-ASOD1,did down-regulate Nedd2
same,down-regulation of CPP-32,CPP-32,no down-regulation of CPP-32
same,NGF-like flattening of naive PC12 cells or neurite outgrowth from neuronally-differentiated cells,"[7]; morphology, 400 nM, 24 hr",did not mimic the actions of NGF
same,protection from apoptosis caused by NGF withdrawal,"[7]; neuronally differentiated PC12 cells, one day",protected neuronally differentiated PC12 cells from apoptosis caused by NGF withdrawal
same,survival of cells,"[7]; two successive additions (at NGF deprivation and one day later), through 4 days",greater than 75%
same,protection from SOD1 down-regulation,"PC12 cells [8]; naive PC12 cells, 50 nM V-ASOD1, V-ANedd up to 800 nM",no protection from SOD1 down-regulation
same,protection from SOD1 down-regulation after pretreatment,PC12 cells [8]; pretreatment with V-ANedd,without effect
same,maintenance of neurites of NGF-deprived neurons,"sympathetic neurons [9]; 400 nM, NGF-free medium with anti-NGF",did not maintain the neurites
same,survival,sympathetic neurons [9]; after 4 days,over 60%
same,survival,sympathetic neurons [9]; at 8 days,25%
same,protection from down-regulation of SOD1,[10],not from down-regulation of SOD1
same,anti-N-Nedd2 staining (immunohistochemistry),Nedd2 [3],decreased to almost undetectable levels
